Columns and labels:
[1] = test system: adhesion of Candida albicans to human Buccal Epithelial Cells; assay: microbe, parasite or virus in culture; type: cell-based; conditions: for incremental increase in adhesion inhibitory effect achieved by de-lipidisation (in brackets): versus Table 4
[2] = test system: Staphylococcus aureus RN 4220; assay: Comparative microbicidal suspension test, free vs emulsified fatty acids; type: cell-based
fresh sheep blood [3] = assay: Blood clotting time, visual tube comparison; conditions: between 0.5% and […] caprylic acid emulsified in 0.5% DLL
Method: Comparative measurement of accelerated clotting times is achieved using appropriate volumes of fresh blood mixed with a volume of test material, where the combined volumes totaled 5 ml in each case in a 15 ml graduated Greiner centrifuge tube (Greiner Bio-one, North Carolina, USA). Immediately after addition of fresh blood, the tubes are inverted twice to mix and allowed to stand without further agitation. Clot formation is visibly apparent when the tubes are tilted slightly, and once a clot formed its integrity was such that it would remain suspended when the tubes were inverted. In each test a 5 ml sample of fresh whole blood (undiluted) is used as a control.
Rate of blood clotting was determined using freshly aspirated sheep blood and apparatus and procedures described in the Methods section. An activated blood clotting meter was used to measure anti-clotting effects and a visual tube comparison to evaluate reduced clotting times.
Blood clotting and/or anti-clotting effects were assessed using a 20% ratio of test item to fresh blood: in practice 4.0 ml of fresh sheep blood was added to tubes containing 1.0 ml of test item, inverted twice to mix and then either left standing for visual assessment of reduced clotting time or a single drop was applied to the cuvette of an activated blood clotting apparatus for assessment of anti-clotting effect (extended time to clot formation).

Staphylococcus aureus [4] = assay: Ex-vivo wound model (beef brisket); conditions: FIG. 10, 100 minutes exposure, 7 logs inoculum
Candida albicans = assay: Microbicidal effect of catheter locking solutions in whole blood; type: cell-based; conditions: 20% by volume, 60 min
[5] = test system: Streptococcus epidermidis; assay: as above; type: cell-based; conditions: 20% by volume, 60 min
Staphylococcus aureus [6] = assay: as above; type: cell-based; conditions: 20% by volume, 60 min
fresh sheep blood [7] = assay: Activated blood clotting time (Hemochron meter)
[8] = test system: Staphylococcus aureus, Streptococcus epidermidis, Escherichia coli and Candida albicans; assay: Microbicidal effect of catheter locking solutions in whole blood, test inoculums overall; type: cell-based; conditions: 20%, one hour in whole blood
Escherichia coli = assay: Microbicidal effect of catheter locking solutions in whole blood; type: cell-based; conditions: 20% by volume, 60 min
[9] = 2.5 mg/ml, Table 5, de-lipidised
[10] = 5.0 mg/ml, Table 5, de-lipidised
[11] = 10 mg/ml, Table 5, de-lipidised
[12] = Table 21, 0.5% W/V fatty acid, free or emulsified in 0.4% W/V DLL
[13] = Table 22, low dose, listed as Free caprylic acid 0.05%
[14] = Table 22, low dose, listed as Free caprylic acid 0.1%
[15] = 2.5 mg/ml, Table 4, lipids as purchased
[16] = 5.0 mg/ml, Table 4, lipids as purchased
[17] = 10 mg/ml, Table 4, lipids as purchased

Row | Compound | viable count (log number) ([2]; 0 Seconds at 37° C.) [log] | viable count (log number) ([2]; 60 Seconds at 37° C.) [log] | viable count (log number) ([2]; 120 Seconds at 37° C.) [log] | viable count (log number) ([2]; 180 Seconds at 37° C.) [log] | viable count (log number) ([2]; 240 Seconds at 37° C.) [log] | viable count (log number) ([2]; 300 Seconds at 37° C.) [log] | viable count (log number) ([2]; 360 Seconds at 37° C.) [log] | % Adhesion ([1]; Table 21) [%] | % inhibition ([1]; Table 21) [%] | Test Count/100 BEC [1, 12] | other results
1 | CC(C)=CCC[C@@H](C)[C@H]1CC[C@@]2(C)C3=C(CC[C@]12C)[C@@]1(C)CC[C@H](O)C(C)(C)[C@@H]1CC3 [DL L] |  |  |  |  |  |  |  |  |  |  | % inhibition at 2.5 mg/ml ([1]; 2.5 mg/ml, Table 5): 54%; Candida albicans per 100 Buccal Epithelial Cell [1, 9]: 247; incremental increase in adhesion inhibitory effect achieved by de-lipidisation (in brackets) ([1]; 2.5 mg/ml): +13%; Candida albicans per 100 Buccal Epithelial Cell [1, 10]: 91; Candida albicans per 100 Buccal Epithelial Cell [1, 11]: 49
2 | CCCCCCCCCC(=O)O [Free capric acid, capric acid] | 6.94 | 6.32 | 6.48 | 6.73 | 6.36 | 5.97 | 6.11 | 90 | 10 | 386 | 
3 | CCCCCC(=O)O [Free caproic acid, caproic acid] | 7.87 | 7.17 | 6.82 | 7.57 | 6.93 | 6.47 | 6.73 | 89 | 11 | 380 | 
4 | CCCCCCCC(=O)O [Free caprylic acid, caprylic acid] | 6.94 | 6.79 | 6.83 | 6.21 | 6.33 | 5.89 | 6.17 | 93 | 7 | 400 | % Adhesion [1, 13]: 94%; % inhibition [1, 13]: 6%; Test Count/100 BEC [1, 13]: 459; % Adhesion [1, 14]: 95%; % inhibition [1, 14]: 5%; Test Count/100 BEC [1, 14]: 466; factor of amplification of adhesion inhibitory effect in emulsified form ([1]; emulsified versus free): 14; clotting time (fresh sheep blood [3]): approximately 40 seconds
5 | CCCCCCCCCCCC(=O)O [Free lauric acid, lauric acid] |  |  |  |  |  |  |  | 95 | 5 | 450 | 
6 | CCCCCCCCCCCCCC(=O)O [Free myristic acid, myristic acid] | 7.38 | 7.27 | 7.84 | 6.93 | 7.11 | 6.26 | 6.84 | 92 | 8 | 436 | 
7 | CCCCCCCCC(=O)O [Free pelargonic acid, pelargonic acid] | 6.94 | 6.55 | 6.31 | 5.96 | 5.67 | 5.83 | 5.27 | 84 | 16 | 360 | 
8 | C=CCCCCCCCCC(=O)O [Free undecylenic acid, undecylenic acid] | 7.87 | 7.19 | 6.99 | 6.57 | 6.83 | 6.67 | 6.31 | 86 | 14 | 448 | 
9 | CC(C)=CCC[C@@H](C)[C@H]1CC[C@@]2(C)C3=C(CC[C@]12C)[C@@]1(C)CC[C@H](O)C(C)(C)[C@@H]1CC3 [L, Lanosterol] |  |  |  |  |  |  |  |  |  |  | Candida albicans per 100 Buccal Epithelial Cell [1, 15]: 306; Candida albicans per 100 Buccal Epithelial Cell [1, 16]: 236; Candida albicans per 100 Buccal Epithelial Cell [1, 17]: 133; inhibition at 2500 µg/mL ([1]; Candida albicans, Epithelial cell, read-out: % inhibition at 2.5 mg/ml): 41%
10 | [H]/N=C(\N/C(=N/[H])NCCCCCCNC(=N)NC(=N)Nc1ccc(Cl)cc1)Nc1ccc(Cl)cc1 [chlorhexidine, chlorhexidine gluconate] |  |  |  |  |  |  |  |  |  |  | logs remaining (Staphylococcus aureus [4]): 1 logs
11 | Bovine Serum Albumin [BSA, reference compound] |  |  |  |  |  |  |  |  |  |  | % inhibition at 2.5 mg/ml ([1]; 2.5 mg/ml, Table 4): 19%; Candida albicans per 100 Buccal Epithelial Cell [1, 15]: 400; Candida albicans per 100 Buccal Epithelial Cell ([1]; 2.5 mg/ml, Table 6, water or 100 mM salt pH 4.5, with/without BSA, listed as BSA Sod′ Lactate): 408; Candida albicans per 100 Buccal Epithelial Cell ([1]; 2.5 mg/ml, Table 6, water or 100 mM salt pH 4.5, with/without BSA, listed as BSA Sod′ citrate): 393; Candida albicans per 100 Buccal Epithelial Cell ([1]; 2.5 mg/ml, Table 6, water or 100 mM salt pH 4.5, with/without BSA, listed as BSA: water): 438; Candida albicans per 100 Buccal Epithelial Cell [1, 16]: 379; % inhibition at 5 mg/ml ([1]; Table 6, listed as BSA Sod′ Lactate): 21%; Candida albicans per 100 Buccal Epithelial Cell ([1]; 5.0 mg/ml, Table 6, listed as BSA Sod′ Lactate): 372; % inhibition at 5 mg/ml ([1]; Table 6, listed as BSA Sod′ citrate): 22%; Candida albicans per 100 Buccal Epithelial Cell ([1]; 5.0 mg/ml, Table 6, listed as BSA Sod′ citrate): 369; % inhibition at 5 mg/ml ([1]; Table 6, listed as BSA: water): 12%; Candida albicans per 100 Buccal Epithelial Cell ([1]; 5.0 mg/ml, Table 6, listed as BSA: water): 400; Candida albicans per 100 Buccal Epithelial Cell [1, 17]: 303; Candida albicans per 100 Buccal Epithelial Cell ([1]; 10 mg/ml, Table 6): 362; % Adhesion ([1]; Table 16): 83%; % inhibition ([1]; Table 16): 17%; Count/100 BEC ([1]; Table 16, 100 mM sodium citrate pH 4.5, 0.5% Methocel, lipids 0.1%): 425
12 | DL BSA: Bovine Serum Albumin treated by the de-lipidisation procedure [reference compound] |  |  |  |  |  |  |  |  |  |  | % inhibition at 2.5 mg/ml ([1]; 2.5 mg/ml, Table 5): 16%; Candida albicans per 100 Buccal Epithelial Cell [1, 9]: 431; incremental increase in adhesion inhibitory effect achieved by de-lipidisation (in brackets) ([1]; 2.5 mg/ml): −3%; Candida albicans per 100 Buccal Epithelial Cell [1, 10]: 393; Candida albicans per 100 Buccal Epithelial Cell [1, 11]: 329
13 | Heparin |  |  |  |  |  |  |  |  |  |  | viable count in whole blood (log number) (Candida albicans): 6.94 log; viable count in whole blood (log number) [5]: 8.22 log; viable count in whole blood (log number) (Staphylococcus aureus [6]): 8.39 log; Activated Blood Clotting Time (fresh sheep blood [7]; 5% incorporation in whole blood): 284 s; Activated Blood Clotting Time (fresh sheep blood [7]; 10% incorporation in whole blood): 423 s; Activated Blood Clotting Time (fresh sheep blood [7]; 15% incorporation in whole blood): 601 s; Activated Blood Clotting Time (fresh sheep blood [7]; 20% incorporation in whole blood): 1023 s; microbicidal effect in words [8]: no microbial inhibition; viable count in whole blood (log number) (Escherichia coli): 7.92 log
